{"source": "patent US10131652B2", "about": "“Pyrimidinyloxy benzene derivatives as herbicides” (E. I. DU PONT DE NEMOURS AND COMPANY, priority 2014, dated 2018)", "type_in_all_cases": "in vivo", "key": {"[1]": {"tested_on": "barnyardgrass (Echinochloa crus-galli)", "experiment": "Test B pre-/postemergence plant response", "outline": "(§1)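 Scoring used a 0–100 scale (100 = complete control) by visual comparison with untreated plants after approximately 10 days in the greenhouse. Compounds, in surfactant-containing non-phytotoxic solvent, were sprayed onto soil at planting or onto 2–10 cm seedlings.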"}, "corn (Zea mays)": {"tested_on": "corn (Zea mays)", "experiment": "Test B pre-/postemergence plant response", "outline": "as §1"}, "[2]": {"tested_on": "giant foxtail (Setaria faberii)", "experiment": "Test B pre-/postemergence plant response", "outline": "as §1"}, "[3]": {"tested_on": "large (Lg) crabgrass (Digitaria sanguinalis)", "experiment": "Test B pre-/postemergence plant response", "outline": "as §1"}, "[4]": {"tested_on": "morningglory (Ipomoea spp.)", "experiment": "Test B pre-/postemergence plant response", "outline": "as §1"}, "[5]": {"tested_on": "pigweed (Amaranthus retroflexus)", "experiment": "Test B pre-/postemergence plant response", "outline": "as §1"}, "[6]": {"tested_on": "velvetleaf (Abutilon theophrasti)", "experiment": "Test B pre-/postemergence plant response", "outline": "as §1"}, "[7]": {"tested_on": "wheat (Triticum aestivum)", "experiment": "Test B pre-/postemergence plant response", "outline": "as §1"}, "[8]": {"tested_on": "barnyardgrass (Echinochloa crus-galli)", "experiment": "Test C flooded paddy test plant response", "details": "Flood, 250 g ai/ha; scale of 0 to 100 where 0 is no effect and 100 is complete control; 13 to 15 days", "outline": "(§2)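 Water-applied treatment: compounds go directly into floodwater standing 3 cm over the soil of pots holding 2-leaf-stage plants. Depth is kept constant; plants stay in a greenhouse 13 to 15 days before visual comparison with controls on a 0–100 scale.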"}, "[9]": {"tested_on": "ducksalad (Heteranthera limosa)", "experiment": "Test C flooded paddy test plant response", "details": "Flood, 250 g ai/ha; scale of 0 to 100 where 0 is no effect and 100 is complete control; 13 to 15 days", "outline": "as §2"}, "rice (Oryza sativa)": {"tested_on": "rice (Oryza sativa)", "experiment": "Test C flooded paddy test plant response", "details": "Flood, 250 g ai/ha; scale of 0 to 100 where 0 is no effect and 100 is complete control; 13 to 15 days", "outline": "as §2"}, "[10]": {"tested_on": "small-flower umbrella sedge (Cyperus difformis)", "experiment": "Test C flooded paddy test plant response", "details": "Flood, 250 g ai/ha; scale of 0 to 100 where 0 is no effect and 100 is complete control; 13 to 15 days", "outline": "as §2"}, "[11]": {"details": "125 g ai/ha, postemergence, 0 to 100 scale, 0 no effect, 100 complete control"}, "[12]": {"details": "Postemergence, 500 g ai/ha, 0 to 100 scale (0 no effect, 100 complete control)"}, "[13]": {"details": "Preemergence, 125 g ai/ha, 0 to 100 scale where 0 is no effect and 100 is complete control"}, "[14]": {"details": "Preemergence, 500 g ai/ha, 0 to 100 scale (0 no effect, 100 complete control)"}, "[15]": {"details": "Postemergence, 1000 g ai/ha, 0 to 100 scale (0 no effect, 100 complete control)"}, "[16]": {"details": "Preemergence, 1000 g ai/ha, 0 to 100 scale (0 no effect, 100 complete control)"}}, "data": [{"smiles": "Clc1cnc(Oc2ccccc2-c2cccnc2)nc1", "note": "[Compound 4]", "values": [{"measurement": "Plant response rating, Barnyardgrass", "setting": "[1]; [11]", "result": 0}, {"measurement": "Plant response rating, Barnyardgrass", "setting": "[1]; [12]", "result": 10}, {"measurement": "Plant response rating, Barnyardgrass", "setting": "[1]; [13]", "result": 0}, {"measurement": "Plant response rating, Barnyardgrass", "setting": "[1]; [14]", "result": 0}, {"measurement": "Plant response rating, Corn", "setting": "corn (Zea mays); [13]", "result": 0}, {"measurement": "Plant response rating, Corn", "setting": "corn (Zea mays); [14]", "result": 0}, {"measurement": "Plant response rating, Foxtail, Giant", "setting": "[2]; [11]", "result": 0}, {"measurement": "Plant response rating, Foxtail, Giant", "setting": "[2]; [12]", "result": 30}, {"measurement": "Plant response rating, Foxtail, Giant", "setting": "[2]; [13]", "result": 10}, {"measurement": "Plant response rating, Foxtail, Giant", "setting": "[2]; [14]", "result": 50}, {"measurement": "Plant response rating, Crabgrass, Large", "setting": "[3]; [11]", "result": 20}, {"measurement": "Plant response rating, Crabgrass, Large", "setting": "[3]; [12]", "result": 50}, {"measurement": "Plant response rating, Crabgrass, Large", "setting": "[3]; [13]", "result": 10}, {"measurement": "Plant response rating, Crabgrass, Large", "setting": "[3]; [14]", "result": 80}, {"measurement": "Plant response rating, Morningglory", "setting": "[4]; [11]", "result": 0}, {"measurement": "Plant response rating, Morningglory", "setting": "[4]; [12]", "result": 30}, {"measurement": "Plant response rating, Morningglory", "setting": "[4]; [13]", "result": 0}, {"measurement": "Plant response rating, Morningglory", "setting": "[4]; [14]", "result": 0}, {"measurement": "Plant response rating, Pigweed", "setting": "[5]; [11]", "result": 30}, {"measurement": "Plant response rating, Pigweed", "setting": "[5]; [12]", "result": 100}, {"measurement": "Plant response rating, Pigweed", "setting": "[5]; [13]", "result": 30}, {"measurement": "Plant response rating, Pigweed", "setting": "[5]; [14]", "result": 70}, {"measurement": "Plant response rating, Velvetleaf", "setting": "[6]; [11]", "result": 30}, {"measurement": "Plant response rating, Velvetleaf", "setting": "[6]; [12]", "result": 60}, {"measurement": "Plant response rating, Velvetleaf", "setting": "[6]; [13]", "result": 0}, {"measurement": "Plant response rating, Velvetleaf", "setting": "[6]; [14]", "result": 30}, {"measurement": "Plant response rating, Wheat", "setting": "[7]; [11]", "result": 0}, {"measurement": "Plant response rating, Wheat", "setting": "[7]; [12]", "result": 0}, {"measurement": "Plant response rating, Wheat", "setting": "[7]; [13]", "result": 0}, {"measurement": "Plant response rating, Wheat", "setting": "[7]; [14]", "result": 0}, {"measurement": "Barnyardgrass plant response rating", "setting": "[8]", "result": 0}, {"measurement": "Ducksalad plant response rating", "setting": "[9]", "result": 0}, {"measurement": "Rice plant response rating", "setting": "rice (Oryza sativa)", "result": 0}, {"measurement": "Sedge, Umbrella plant response rating", "setting": "[10]", "result": 0}]}, {"smiles": "Cn1ccc(-c2ccccc2Oc2ncc(Cl)cn2)n1", "note": "[Compound 10]", "values": [{"measurement": "Plant response rating, Barnyardgrass", "setting": "[1]; [11]", "result": 0}, {"measurement": "Plant response rating, Barnyardgrass", "setting": "[1]; [12]", "result": 0}, {"measurement": "Plant response rating, Barnyardgrass", "setting": "[1]; [15]", "result": 10}, {"measurement": "Plant response rating, Barnyardgrass", "setting": "[1]; [13]", "result": 0}, {"measurement": "Plant response rating, Barnyardgrass", "setting": "[1]; [14]", "result": 0}, {"measurement": "Plant response rating, Barnyardgrass", "setting": "[1]; [16]", "result": 0}, {"measurement": "Plant response rating, Corn", "setting": "corn (Zea mays); [11]", "result": 0}, {"measurement": "Plant response rating, Corn", "setting": "corn (Zea mays); [12]", "result": 0}, {"measurement": "Plant response rating, Corn", "setting": "corn (Zea mays); [15]", "result": 0}, {"measurement": "Plant response rating, Corn", "setting": "corn (Zea mays); [13]", "result": 0}, {"measurement": "Plant response rating, Corn", "setting": "corn (Zea mays); [14]", "result": 0}, {"measurement": "Plant response rating, Corn", "setting": "corn (Zea mays); [16]", "result": 0}, {"measurement": "Plant response rating, Foxtail, Giant", "setting": "[2]; [11]", "result": 0}, {"measurement": "Plant response rating, Foxtail, Giant", "setting": "[2]; [12]", "result": 0}, {"measurement": "Plant response rating, Foxtail, Giant", "setting": "[2]; [15]", "result": 10}, {"measurement": "Plant response rating, Foxtail, Giant", "setting": "[2]; [13]", "result": 0}, {"measurement": "Plant response rating, Foxtail, Giant", "setting": "[2]; [14]", "result": 0}, {"measurement": "Plant response rating, Foxtail, Giant", "setting": "[2]; [16]", "result": 0}, {"measurement": "Plant response rating, Crabgrass, Large", "setting": "[3]; [11]", "result": 0}, {"measurement": "Plant response rating, Crabgrass, Large", "setting": "[3]; [12]", "result": 0}, {"measurement": "Plant response rating, Crabgrass, Large", "setting": "[3]; [15]", "result": 10}, {"measurement": "Plant response rating, Crabgrass, Large", "setting": "[3]; [13]", "result": 0}, {"measurement": "Plant response rating, Crabgrass, Large", "setting": "[3]; [14]", "result": 0}, {"measurement": "Plant response rating, Crabgrass, Large", "setting": "[3]; [16]", "result": 10}, {"measurement": "Plant response rating, Morningglory", "setting": "[4]; [11]", "result": 20}, {"measurement": "Plant response rating, Morningglory", "setting": "[4]; [12]", "result": 30}, {"measurement": "Plant response rating, Morningglory", "setting": "[4]; [15]", "result": 10}, {"measurement": "Plant response rating, Morningglory", "setting": "[4]; [13]", "result": 0}, {"measurement": "Plant response rating, Morningglory", "setting": "[4]; [14]", "result": 0}, {"measurement": "Plant response rating, Morningglory", "setting": "[4]; [16]", "result": 0}, {"measurement": "Plant response rating, Pigweed", "setting": "[5]; [11]", "result": 0}, {"measurement": "Plant response rating, Pigweed", "setting": "[5]; [12]", "result": 20}, {"measurement": "Plant response rating, Pigweed", "setting": "[5]; [15]", "result": 50}, {"measurement": "Plant response rating, Pigweed", "setting": "[5]; [13]", "result": 0}, {"measurement": "Plant response rating, Pigweed", "setting": "[5]; [14]", "result": 30}, {"measurement": "Plant response rating, Pigweed", "setting": "[5]; [16]", "result": 10}, {"measurement": "Plant response rating, Velvetleaf", "setting": "[6]; [11]", "result": 0}, {"measurement": "Plant response rating, Velvetleaf", "setting": "[6]; [12]", "result": 20}, {"measurement": "Plant response rating, Velvetleaf", "setting": "[6]; [15]", "result": 20}, {"measurement": "Plant response rating, Velvetleaf", "setting": "[6]; [13]", "result": 0}, {"measurement": "Plant response rating, Velvetleaf", "setting": "[6]; [14]", "result": 0}, {"measurement": "Plant response rating, Velvetleaf", "setting": "[6]; [16]", "result": 0}, {"measurement": "Plant response rating, Wheat", "setting": "[7]; [11]", "result": 0}, {"measurement": "Plant response rating, Wheat", "setting": "[7]; [12]", "result": 0}, {"measurement": "Plant response rating, Wheat", "setting": "[7]; [15]", "result": 0}, {"measurement": "Plant response rating, Wheat", "setting": "[7]; [13]", "result": 0}, {"measurement": "Plant response rating, Wheat", "setting": "[7]; [14]", "result": 0}, {"measurement": "Plant response rating, Wheat", "setting": "[7]; [16]", "result": 0}, {"measurement": "Barnyardgrass plant response rating", "setting": "[8]", "result": 0}, {"measurement": "Ducksalad plant response rating", "setting": "[9]", "result": 0}, {"measurement": "Rice plant response rating", "setting": "rice (Oryza sativa)", "result": 0}, {"measurement": "Sedge, Umbrella plant response rating", "setting": "[10]", "result": 0}]}]}
